# Reference: US9695155B2, “Herbicidal substituted pyrimidinyloxy benzene compounds” (E. I. DU PONT DE NEMOURS AND COMPANY, priority 2013, dated 2017)
# Tests used:
# [1] = tested on: kochia; test: Test A preemergence; assay type: in vivo, Kochia scoparia; conditions: for Kochia plant response rating: 500 g ai/ha
# Method in brief: (§1)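 Scoring: eye-based comparison with untreated controls, 0 for no effect through 100 for complete control, at about day 10. Treatments: directed soil spray preemergence; foliar spray postemergence on 2–10 cm plants at the one- to two-leaf stage. Medium: loam soil with sand.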
# [2] = tested on: Italian ryegrass; test: Test A preemergence; assay type: in vivo, Lolium multiflorum; conditions: for Ryegrass, Italian plant response rating: 500 g ai/ha
# Method in brief: as §1
# [3] = tested on: blackgrass; test: Test A postemergence; assay type: in vivo, Alopecurus myosuroides
# Method in brief: as §1
# [4] = tested on: corn; test: Test E preemergence; assay type: in vivo, Zea mays; conditions: for Corn plant response rating: scale 0 to 100 (0 no effect, 100 complete control); for Plant response rating, Corn: 125 g ai/ha, scale 0 to 100, 0 no effect, 100 complete control
# Method in brief: (§2)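 Test chemicals formulated in a non-phytotoxic solvent mixture containing a surfactant were applied preemergence to seeds in silt loam soil or postemergence to plants at the 1- to 4-leaf stage in potting mix. After 14 to 21 days in a greenhouse, injury was visually rated against controls on a 0-100 scale (0 = no effect, 100 = complete control).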
# [5] = tested on: velvetleaf; test: Test E preemergence; assay type: in vivo, Abutilon theophrasti; conditions: for Velvetleaf plant response rating: scale 0 to 100 (0 no effect, 100 complete control); for Plant response rating, Velvetleaf: 125 g ai/ha, scale 0 to 100, 0 no effect, 100 complete control
# Method in brief: as §2
# [6] = tested on: lambsquarters; test: Test E preemergence; assay type: in vivo, Chenopodium album; conditions: for Lambsquarters plant response rating: scale 0 to 100 (0 no effect, 100 complete control); for Plant response rating, Lambsquarters: 125 g ai/ha, scale 0 to 100, 0 no effect, 100 complete control
# Method in brief: as §2
# [7] = tested on: palmer pigweed; test: Test E preemergence; assay type: in vivo, Amaranthus palmeri; conditions: for Pigweed, Palmer plant response rating: scale 0 to 100 (0 no effect, 100 complete control); for Plant response rating, Pigweed, Palmer: 125 g ai/ha, scale 0 to 100, 0 no effect, 100 complete control
# Method in brief: as §2
# [8] = tested on: waterhemp; test: Test E preemergence; assay type: in vivo, Amaranthus rudis; conditions: for Waterhemp plant response rating: scale 0 to 100 (0 no effect, 100 complete control); for Plant response rating, Waterhemp: 125 g ai/ha, scale 0 to 100, 0 no effect, 100 complete control
# Method in brief: as §2
# [9] = tested on: Brazilian crabgrass; test: Test E preemergence; assay type: in vivo, Digitaria horizontalis; conditions: for Crabgrass, Brazil plant response rating: scale 0 to 100 (0 no effect, 100 complete control); for Plant response rating, Crabgrass, Brazil: 125 g ai/ha, scale 0 to 100, 0 no effect, 100 complete control
# Method in brief: as §2
# [10] = tested on: johnsongrass; test: Test E preemergence; assay type: in vivo, Sorghum halepense; conditions: for Johnsongrass plant response rating: scale 0 to 100 (0 no effect, 100 complete control); for Plant response rating, Johnsongrass: 125 g ai/ha, scale 0 to 100, 0 no effect, 100 complete control
# Method in brief: as §2
# [11] = tested on: arrowleaf sida; test: Test E preemergence; assay type: in vivo, Sida rhombifolia; conditions: for Arrowleaf Sida plant response rating: scale 0 to 100 (0 no effect, 100 complete control); for Plant response rating, Arrowleaf Sida: scale 0 to 100, 0 no effect, 100 complete control
# Method in brief: as §2
# [12] = tested on: field bindweed; test: Test E preemergence; assay type: in vivo, Convolvulus arvensis; conditions: for Field Bindweed plant response rating: scale 0 to 100 (0 no effect, 100 complete control); for Plant response rating, Field Bindweed: 125 g ai/ha, scale 0 to 100, 0 no effect, 100 complete control
# Method in brief: as §2
# [13] = tested on: yellow nutsedge; test: Test E preemergence; assay type: in vivo, Cyperus esculentus; conditions: for Nutsedge, Yellow plant response rating: scale 0 to 100 (0 no effect, 100 complete control); for Plant response rating, Nutsedge, Yellow: 125 g ai/ha, scale 0 to 100, 0 no effect, 100 complete control
# Method in brief: as §2
# [14] = 125 g ai/ha, 0 to 100 scale where 0 is no effect and 100 is complete control
# [15] = 0 to 100 scale, 0 no effect, 100 complete control, approx. 10 days
# [16] = 500 g ai/ha, 0 to 100 scale where 0 is no effect and 100 is complete control
# [17] = 0 to 100 scale where 0 is no effect and 100 is complete control
# [18] = 31 g ai/ha, 0 to 100 scale where 0 is no effect and 100 is complete control, visual, approximately 10 days
compound,measurement,setting,value
N#Cc1cccc(Oc2ncc(Br)cn2)c1-n1cc(I)cn1 [Compound 88],"Plant response rating, Kochia",[1]; [14],100
same,Kochia plant response rating,[1]; [15],100
same,"Plant response rating, Ryegrass, Italian",[2]; [14],20
same,"Ryegrass, Italian plant response rating",[2]; [15],30
same,"Plant response rating, Blackgrass",[3]; [14],70
same,"Plant response rating, Blackgrass",[3]; [16],100
same,Corn plant response rating,[4]; 16 g ai/ha,0
same,Corn plant response rating,[4]; 31 g ai/ha,0
same,Corn plant response rating,[4]; 62 g ai/ha,35
same,"Plant response rating, Corn",[4],35
same,Velvetleaf plant response rating,[5]; 16 g ai/ha,0
same,Velvetleaf plant response rating,[5]; 31 g ai/ha,0
same,Velvetleaf plant response rating,[5]; 62 g ai/ha,20
same,"Plant response rating, Velvetleaf",[5],65
same,Lambsquarters plant response rating,[6]; 16 g ai/ha,75
same,Lambsquarters plant response rating,[6]; 31 g ai/ha,50
same,Lambsquarters plant response rating,[6]; 62 g ai/ha,100
same,"Plant response rating, Lambsquarters",[6],100
same,"Pigweed, Palmer plant response rating",[7]; 16 g ai/ha,0
same,"Pigweed, Palmer plant response rating",[7]; 31 g ai/ha,0
same,"Pigweed, Palmer plant response rating",[7]; 62 g ai/ha,0
same,"Plant response rating, Pigweed, Palmer",[7],75
same,Waterhemp plant response rating,[8]; 16 g ai/ha,20
same,Waterhemp plant response rating,[8]; 31 g ai/ha,35
same,Waterhemp plant response rating,[8]; 62 g ai/ha,35
same,"Plant response rating, Waterhemp",[8],100
same,"Crabgrass, Brazil plant response rating",[9]; 16 g ai/ha,0
same,"Crabgrass, Brazil plant response rating",[9]; 31 g ai/ha,0
same,"Crabgrass, Brazil plant response rating",[9]; 62 g ai/ha,60
same,"Plant response rating, Crabgrass, Brazil",[9],60
same,Johnsongrass plant response rating,[10]; 16 g ai/ha,0
same,Johnsongrass plant response rating,[10]; 31 g ai/ha,0
same,Johnsongrass plant response rating,[10]; 62 g ai/ha,15
same,"Plant response rating, Johnsongrass",[10],15
same,Arrowleaf Sida plant response rating,"[11]; 16 g ai/ha, preemergence",30
same,Arrowleaf Sida plant response rating,"[11]; 31 g ai/ha, preemergence",40
same,"Plant response rating, Arrowleaf Sida","[11]; Preemergence, 62 g ai/ha",10
same,"Plant response rating, Arrowleaf Sida","[11]; preemergence, 125 g ai/ha",35
same,Field Bindweed plant response rating,[12]; 16 g ai/ha,0
same,Field Bindweed plant response rating,[12]; 31 g ai/ha,0
same,Field Bindweed plant response rating,[12]; 62 g ai/ha,0
same,"Plant response rating, Field Bindweed",[12],50
same,"Nutsedge, Yellow plant response rating",[13]; 16 g ai/ha,0
same,"Nutsedge, Yellow plant response rating",[13]; 31 g ai/ha,0
same,"Nutsedge, Yellow plant response rating",[13]; 62 g ai/ha,0
same,"Plant response rating, Nutsedge, Yellow",[13],0
"FC(F)(F)COc1cnn(-c2ccccc2Oc2ncc(Cl)cn2)c1 [Compound 138, 5-chloro-2-[2-[4-(2,2,2-trifluoroethoxy)-1H-pyrazol-1-yl]phenoxy]pyrimidine]","Plant response rating, Kochia",[1]; [14],90
same,Kochia plant response rating,[1]; [17],100
same,"Plant response rating, Ryegrass, Italian",[2]; [14],0
same,"Ryegrass, Italian plant response rating",[2]; [17],50
same,Blackgrass plant response rating,[3]; [14],50
same,"Plant response rating, Blackgrass",[3]; [16],90
same,Corn plant response rating,[4]; 16 g ai/ha,0
same,Corn plant response rating,[4]; 31 g ai/ha,0
same,Corn plant response rating,[4]; 62 g ai/ha,15
same,"Plant response rating, Corn",[4],35
same,Velvetleaf plant response rating,[5]; 16 g ai/ha,40
same,Velvetleaf plant response rating,[5]; 31 g ai/ha,70
same,Velvetleaf plant response rating,[5]; 62 g ai/ha,90
same,"Plant response rating, Velvetleaf",[5],100
same,Lambsquarters plant response rating,[6]; 16 g ai/ha,0
same,Lambsquarters plant response rating,[6]; 31 g ai/ha,50
same,Lambsquarters plant response rating,[6]; 62 g ai/ha,100
same,"Plant response rating, Lambsquarters",[6],100
same,"Pigweed, Palmer plant response rating",[7]; 16 g ai/ha,0
same,"Pigweed, Palmer plant response rating",[7]; 31 g ai/ha,70
same,"Pigweed, Palmer plant response rating",[7]; 62 g ai/ha,75
same,"Plant response rating, Pigweed, Palmer",[7],70
same,Waterhemp plant response rating,[8]; 16 g ai/ha,0
same,Waterhemp plant response rating,[8]; 31 g ai/ha,100
same,Waterhemp plant response rating,[8]; 62 g ai/ha,90
same,"Plant response rating, Waterhemp",[8],100
same,"Crabgrass, Brazil plant response rating",[9]; 16 g ai/ha,0
same,"Crabgrass, Brazil plant response rating",[9]; 31 g ai/ha,40
same,"Crabgrass, Brazil plant response rating",[9]; 62 g ai/ha,90
same,"Plant response rating, Crabgrass, Brazil",[9],98
same,Johnsongrass plant response rating,[10]; 16 g ai/ha,0
same,Johnsongrass plant response rating,[10]; 31 g ai/ha,0
same,Johnsongrass plant response rating,[10]; 62 g ai/ha,35
same,"Plant response rating, Johnsongrass",[10],40
same,Arrowleaf Sida plant response rating,"[11]; 16 g ai/ha, preemergence",0
same,Arrowleaf Sida plant response rating,"[11]; 31 g ai/ha, preemergence",0
same,Arrowleaf Sida plant response rating,"[11]; 62 g ai/ha, preemergence",40
same,"Plant response rating, Arrowleaf Sida","[11]; preemergence, 125 g ai/ha",100
same,Field Bindweed plant response rating,[12]; 16 g ai/ha,0
same,Field Bindweed plant response rating,[12]; 31 g ai/ha,20
same,Field Bindweed plant response rating,[12]; 62 g ai/ha,40
same,"Plant response rating, Field Bindweed",[12],50
same,"Nutsedge, Yellow plant response rating",[13]; 16 g ai/ha,0
same,"Nutsedge, Yellow plant response rating",[13]; 31 g ai/ha,10
same,"Nutsedge, Yellow plant response rating",[13]; 62 g ai/ha,15
same,"Plant response rating, Nutsedge, Yellow",[13],40
N#Cc1cnn(-c2c(CF)cccc2Oc2ncc(F)cn2)c1 [Compound 151],"Plant response rating, Kochia",[1]; [18],80
same,"Plant response rating, Kochia",[1]; [14],90
same,"Plant response rating, Ryegrass, Italian",[2]; [18],0
same,"Plant response rating, Ryegrass, Italian",[2]; [14],0
same,"Plant response rating, Blackgrass","[3]; 31 g ai/ha, 0 to 100 scale, 0 no effect, 100 complete control",20
same,Blackgrass plant response rating,[3]; [14],50
same,Corn plant response rating,[4]; 16 g ai/ha,0
same,Corn plant response rating,[4]; 31 g ai/ha,0
same,Corn plant response rating,[4]; 62 g ai/ha,0
same,"Plant response rating, Corn",[4],0
same,Velvetleaf plant response rating,[5]; 31 g ai/ha,95
same,Velvetleaf plant response rating,[5]; 62 g ai/ha,100
same,"Plant response rating, Velvetleaf",[5],100
same,Lambsquarters plant response rating,[6]; 31 g ai/ha,100
same,Lambsquarters plant response rating,[6]; 62 g ai/ha,100
same,"Plant response rating, Lambsquarters",[6],100
same,"Pigweed, Palmer plant response rating",[7]; 31 g ai/ha,100
same,"Pigweed, Palmer plant response rating",[7]; 62 g ai/ha,100
same,"Plant response rating, Pigweed, Palmer",[7],100
same,Waterhemp plant response rating,[8]; 31 g ai/ha,75
same,Waterhemp plant response rating,[8]; 62 g ai/ha,98
same,"Plant response rating, Waterhemp",[8],100
same,"Crabgrass, Brazil plant response rating",[9]; 16 g ai/ha,0
same,"Crabgrass, Brazil plant response rating",[9]; 31 g ai/ha,35
same,"Crabgrass, Brazil plant response rating",[9]; 62 g ai/ha,70
same,"Plant response rating, Crabgrass, Brazil",[9],75
same,Johnsongrass plant response rating,[10]; 31 g ai/ha,0
same,Johnsongrass plant response rating,[10]; 62 g ai/ha,35
same,"Plant response rating, Johnsongrass",[10],70
same,Arrowleaf Sida plant response rating,"[11]; 16 g ai/ha, preemergence",60
same,Arrowleaf Sida plant response rating,"[11]; 31 g ai/ha, preemergence",80
same,Arrowleaf Sida plant response rating,"[11]; 62 g ai/ha, preemergence",100
same,"Plant response rating, Arrowleaf Sida","[11]; preemergence, 125 g ai/ha",100
same,Field Bindweed plant response rating,[12]; 16 g ai/ha,0
same,Field Bindweed plant response rating,[12]; 31 g ai/ha,0
same,Field Bindweed plant response rating,[12]; 62 g ai/ha,20
same,"Plant response rating, Field Bindweed",[12],35
same,"Nutsedge, Yellow plant response rating",[13]; 31 g ai/ha,0
same,"Nutsedge, Yellow plant response rating",[13]; 62 g ai/ha,0
same,"Plant response rating, Nutsedge, Yellow",[13],0
